Like-named read-outs stand apart in the source and are kept apart here.
Key:
Type in all cases: cell-based
[1] = system: OVCAR-3 (Adenocarcinoma, ovary, human); assay: Anti-cancer activity assay, alamarBlue cell growth, OVCAR-3
Excerpt: (§1) Four human tumor cell lines, OVCAR-3 (Adenocarcinoma, ovary, human), A549 (Carcinoma, lung, human), HT-29 (Adenocarcinoma, colon, moderately well-differentiated grade II, human) and MCF-7 (Breast adenocarcinoma, pleural effusion, human) were chosen in the experiments., which were obtained from American Type Culture Collection (ATCC) under codes of ATCC HTB-161, ATCC CCL-185, ATC HTB-38 and ATCC HTB-22, respectively. The culture medium used for OVCAR-3 was RPMI 1640 medium with 20% fetal bovine serum, which was supplemented with 0.01 mg bovine insulin per ml and 1% Antibiotice-Antimycotic. The culture medium used for A549 was F-12K nutrient mixture (Kaighn's Modification), 90%; and fetal bovine serum 10%. The culture medium used for HT-29 was McCoy's 5A medium, 90%; and fetal bovine serum, 10%. The culture medium used for MCF-7 was Minimum Essential Medium, 90%; and fetal bovine serum, 10%.
CK was dissolved in a mixed solvent of ethanol and Cremophor® RH40 (ethanol:Cremophor® RH40=1:1), and then diluted with sterile distilled water to obtain test solutions having CK concentrations of 10000, 1000, 100, 10, 1 μg/ml in 5% ethanol and 5% Cremophor® RH40.
(§2) Aliquots of 100 μl of cell suspension (about 1.0˜3.0×10^3/well) were placed in 96-well microtiter plates in an atmosphere of 5% CO2 at 37° C. After 24 hours, 100 μl of growth medium and 2 μl of test solution or vehicle (5% ethanol and 5% Cremophor® RH40) were added per respectively per well in duplicate for an additional 72-hour incubation. Thus, the final concentration of vehicle was 0.05%. The test compound, CK, was evaluated at concentrations of 100, 10, 1, 0.1, 0.01 μg/ml. At the end of the incubation, 20 μl of alamarBlue 90% reagent was added to each well for another 6-hour incubation before detection of cell viability by fluorescent intensity. Fluorescent intensity was measured using a SPECTRAfluor Plus plate reader with excitation at 530 nm and emission at 590 nm.
The tumor cell lines used were the same as in Experiment 1.
CK succinate and CK glutarate derivatives were directly dissolved in the phosphate buffered saline (PBS) having a pH of 7.4, and then diluted with sterile distilled water to obtain test solutions having concentrations of the CK derivative of 2000, 200, 20, 2, 0.2 μg/ml in 40% PBS
as §2, with “(about 5.0×10^3/well)” for “(about 1.0˜3.0×10^3/well)”, “hours, 90” for “hours, 100”, “and 10” for “and 2”, “vehicle (40% PBS, pH 7.4)” for “vehicle (5% ethanol and 5% Cremophor® RH40)”, “compound, CK derivative,” for “compound, CK,”
The measured results were calculated according to the following formulas: • PG (Percent Growth): PG(%)=100%×(Mean Ftest-Mean Ftime0)/(Mean Fctrl-Mean Ftime0) • If (Mean Ftest-Mean Ftime0)<0, then PG(%)=100%×(Mean Ftest-Mean Ftime0)/(Mean Ftime0-Mean Fblank) wherein • Mean Ftime0=The average of two measured fluorescent intensities of reduced alamarBlue at the time just before exposure of cells to the test compound; • Mean Ftest=The average of two measured fluorescent intensities of alamarBlue after 72-hour exposure of cells to the test compound; • Mean Fctrl=The average of two measured fluorescent intensities of alamarBlue after 72-hour incubation without the test compound; • Mean Fblank=The average of two measured fluorescent intensities of alamarBlue in medium without cells after 72-hour incubation. […]

[2] = system: MCF-7 (Breast adenocarcinoma, pleural effusion, human); assay: Anti-cancer activity assay, alamarBlue cell growth, MCF-7; conditions: 72-hour incubation, CK in 5% ethanol/5% Cremophor RH40, derivatives in PBS pH 7.4, read-out: IC50 (μM) of CK, CK succinate and CK glutarate derivatives, MCF-7
Excerpt: as §1, with “The culture medium used for A549 was F-12K nutrient mixture (Kaighn's Modification), 90%; and fetal bovine serum 10%. The culture medium used for HT-29 was McCoy's 5A medium, 90%; and fetal bovine serum, 10%. The culture medium used for MCF-7 was Minimum Essential Medium, 90%; and fetal bovine serum, 10%.” left out
(§3) Aliquots of 100 μl of cell suspension (about 1.0˜3.0×10^3/well) were placed in 96-well microtiter plates in an atmosphere of 5% CO2 at 37° C. […] The test compound, CK, was evaluated at concentrations of 100, 10, 1, 0.1, 0.01 μg/ml. […] Fluorescent intensity was measured using a SPECTRAfluor Plus plate reader with excitation at 530 nm and emission at 590 nm. […]
as §3, with “5.0×10^3/well)” for “1.0˜3.0×10^3/well)”, “CK derivative,” for “CK,”

[3] = system: A549 (Carcinoma, lung, human); assay: Anti-cancer activity assay, alamarBlue cell growth, A549; conditions: 72-hour incubation, CK in 5% ethanol/5% Cremophor RH40, derivatives in PBS pH 7.4, read-out: IC50 (μM) of CK, CK succinate and CK glutarate derivatives, A549
Excerpt: as §1, with “The culture medium used for A549 was F-12K nutrient mixture (Kaighn's Modification), 90%; and fetal bovine serum 10%. The culture medium used for HT-29 was McCoy's 5A medium, 90%; and fetal bovine serum, 10%. The culture medium used for MCF-7 was Minimum Essential Medium, 90%; and fetal bovine serum, 10%.” left out
as §3
as §3, with “5.0×10^3/well)” for “1.0˜3.0×10^3/well)”, “CK derivative,” for “CK,”

[4] = system: HT-29 (Adenocarcinoma, colon, moderately well-differentiated grade II, human); assay: Anti-cancer activity assay, alamarBlue cell growth, HT-29; conditions: 72-hour incubation, CK in 5% ethanol/5% Cremophor RH40, derivatives in PBS pH 7.4, read-out: IC50 (μM) of CK, CK succinate and CK glutarate derivatives, HT-29
Excerpt: as §1, with “The culture medium used for A549 was F-12K nutrient mixture (Kaighn's Modification), 90%; and fetal bovine serum 10%. The culture medium used for HT-29 was McCoy's 5A medium, 90%; and fetal bovine serum, 10%. The culture medium used for MCF-7 was Minimum Essential Medium, 90%; and fetal bovine serum, 10%.” left out
as §3
as §3, with “5.0×10^3/well)” for “1.0˜3.0×10^3/well)”, “CK derivative,” for “CK,”

[5] = OVCAR-3 tumor cell, Table 4, read-out: IC50 (μM) of ginsenosides and it's succinate derivatives on OVCAR-3 tumor cell
[6] = OVCAR-3, 72-hour incubation, alamarBlue, CK in 5% ethanol/5% Cremophor RH40, derivatives in PBS pH 7.4, read-out: IC50 (μM) of CK, CK succinate and CK glutarate derivatives, OVCAR-3

| SMILES | IC50 [1, 5] [µM] | IC50 [1, 6] [µM] | also measured |
| --- | --- | --- | --- |
| CC(C)=CCCC(C)(O)C1CCC2(C)C1C(OC(=O)CCC(=O)O)CC1C3(C)CCC(OC(=O)CCC(=O)O)C(C)(C)C3C(OC(=O)CCC(=O)O)CC12C (stereo not shown) [GS53, PPT-3,6,12-trisuccinate] | 47.6 | – | – |
| CC(C)=CCC[C@](C)(O[C@@H]1O[C@H](CO)[C@@H](O)[C@H](OC(=O)CCC(=O)O)[C@H]1O)[C@H]1CC[C@]2(C)[C@@H]1[C@H](O)C[C@@H]1[C@@]3(C)CC[C@H](O)C(C)(C)[C@@H]3CC[C@]12C [GS-8, CK-3′-monosuccinate] | – | 19.3 | IC50 [2]: 53.9 µM; IC50 [3]: 31.8 µM; IC50 [4]: 71.9 µM |
| CC(C)=CCC[C@](C)(O[C@@H]1O[C@H](CO)[C@@H](O)[C@H](O)[C@H]1O)[C@H]1CC[C@]2(C)[C@@H]1[C@H](O)C[C@@H]1[C@@]3(C)CC[C@H](O)C(C)(C)[C@@H]3[C@@H](O)C[C@]12C [GS30, F1, reference compound] | 50.1 | – | – |
| CC(C)=CCCC(C)(O)C1CCC2(C)C1C(OC(=O)CCC(=O)O)CC1C3(C)CCC(OC(=O)CCC(=O)O)C(C)(C)C3CCC12C (stereo not shown) [GS42, PPD-3,12-disuccinate] | 30.3 | – | – |
| CC(C)=CCCC(C)(O)C1CCC2(C)C1C(OC(=O)CCC(=O)O)CC1C3(C)CCC(OC(=O)CCC(=O)O)C(C)(C)C3C(O)CC12C (stereo not shown) [GS52, PPT-3,12-disuccinate] | 26.6 | – | – |
| CC(C)=CCCC(C)(O)[C@H]1CC[C@]2(C)[C@@H]1[C@H](O)C[C@@H]1[C@@]3(C)CC[C@H](O)C(C)(C)[C@@H]3CC[C@]12C (stereo in doubt) [GS40, protopanaxadiol, reference compound] | 28.2 | – | – |
| CC(C)=CCC[C@](C)(O)[C@H]1CC[C@]2(C)[C@@H]1[C@H](O)C[C@@H]1[C@@]3(C)CC[C@H](O)C(C)(C)[C@@H]3[C@@H](O)C[C@]12C [GS50, protopanaxatriol, reference compound] | 31.5 | – | – |
| CC(C)=CCCC(C)(OC1OC(COC(=O)CCC(=O)O)C(O)C(O)C1O)C1CCC2(C)C1C(O)CC1C3(C)CCC(O)C(C)(C)C3CCC12C (stereo not shown) [GS-6, CK-6′-monosuccinate] | – | 22.1 | – |
| CC(C)=CCCC(C)(OC1OC(CO)C(O)C(OC(=O)CCCC(=O)O)C1O)C1CCC2(C)C1C(O)CC1C3(C)CCC(O)C(C)(C)C3CCC12C (stereo not shown) [GS-13, CK-3′-monoglutarate] | – | 69.1 | – |
| CC(C)=CCCC(C)(OC1OC(CO)C(O)C(OC(=O)CCC(=O)O)C1O)C1CCC2(C)C1C(O)CC1C3(C)CCC(O)C(C)(C)C3C(O)CC12C (stereo not shown) [GS32, F1-3′-monosuccinate] | 14.9 | – | – |
| CC(C)=CCC[C@](C)(O[C@@H]1O[C@H](CO)[C@@H](O)[C@H](O)[C@H]1O)[C@H]1CC[C@]2(C)[C@@H]1[C@H](O)C[C@@H]1[C@@]3(C)CC[C@H](O)C(C)(C)[C@@H]3CC[C@]12C [GS-12, 20-O-β-D-glucopyranosyl-protopanaxadiol, reference compound] | – | 2.7 | IC50 [2]: 11.2 µM; IC50 [3]: 17.7 µM; IC50 [4]: 9.3 µM |
| CC(C)=CCCC(C)(OC1OC(COC(=O)CCCC(=O)O)C(O)C(OC(=O)CCCC(=O)O)C1O)C1CCC2(C)C1C(O)CC1C3(C)CCC(O)C(C)(C)C3CCC12C (stereo not shown) [GS-14, CK-3′,6′-diglutarate] | – | 79.8 | – |
| CC(C)=CCCC(C)(OC1OC(COC(=O)CCC(=O)O)C(OC(=O)CCC(=O)O)C(OC(=O)CCC(=O)O)C1O)C1CCC2(C)C1C(O)CC1C3(C)CCC(O)C(C)(C)C3CCC12C (stereo not shown) [GS-11, CK-3′,4′,6′-trisuccinate] | – | > 100 | – |
| CC(C)=CCCC(C)(O)C1CCC2(C)C1C(OC(=O)CCC(=O)O)CC1C3(C)CCC(O)C(C)(C)C3C(O)CC12C (stereo not shown) [GS51, PPT-12-monosuccinate] | 31.2 | – | – |
| CC(C)=CCCC(C)(O)C1CCC2(C)C1C(OC(=O)CCC(=O)O)CC1C3(C)CCC(O)C(C)(C)C3CCC12C (stereo not shown) [GS41, PPD-12-monosuccinate] | 42.8 | – | – |
| CC(C)=CCCC(C)(OC1OC(COC(=O)CCC(=O)O)C(O)C(OC(=O)CCC(=O)O)C1O)C1CCC2(C)C1C(O)CC1C3(C)CCC(O)C(C)(C)C3CCC12C (stereo not shown) [GS-9, CK-3′,6,-disuccinate] | – | 89.9 | – |

— patent US20060234956A1, “Dicarboxylic acid ester derivatives of ginsenoside, pharmaceutical preparations containing the same, and preparation thereof” (Amersen Bioscience International, Inc., priority 2005, published 2006)
